Source: PubChem BioAssay AID1963827 (Molecular Pharmacology Branch, DTP, NCI, 2024)

System: 994946-033-R-J1-PDC complex spheroid viability
Assay: Anticancer human tumor 994946-033-R-J1-PDC patient-derived melanoma cell line growth inhibition [POLQ]
Settings: for IC50: curve of first compound; for viability, T/C: stronger effect = lower value
Summary of the method: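 Patient-derived tumour cells were co-cultured with HUVEC and mesenchymal stem cells as multicellular spheroids at 37 °C. They were treated with POLQ inhibitors (novobiocin, ART-558, RP6685) alone or combined with other agents. Top concentrations were at or near clinical Cmax (otherwise 10 microM; SN-38 at 1 microM), decreasing in half-log steps.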

[1] = second compound 0.0316 µM, first compound 0.00316 µM
[2] = second compound 0.0316 µM, first compound 0.01 µM
[3] = second compound 0.0316 µM, first compound 0.0316 µM
[4] = second compound 0.0316 µM, first compound 0.1 µM
[5] = second compound 0.0316 µM, first compound 0.316 µM
[6] = second compound 0.0316 µM, first compound 1 µM
[7] = second compound 0.1 µM, first compound 0.00316 µM
[8] = second compound 0.1 µM, first compound 0.01 µM
[9] = second compound 0.1 µM, first compound 0.0316 µM
[10] = second compound 0.1 µM, first compound 0.1 µM
[11] = second compound 0.1 µM, first compound 0.316 µM
[12] = second compound 0.1 µM, first compound 1 µM
[13] = second compound 0.316 µM, first compound 0.00316 µM
[14] = second compound 0.316 µM, first compound 0.01 µM
[15] = second compound 0.316 µM, first compound 0.0316 µM
[16] = second compound 0.316 µM, first compound 0.1 µM
[17] = second compound 0.316 µM, first compound 0.316 µM
[18] = second compound 0.316 µM, first compound 1 µM
[19] = second compound 1 µM, first compound 0.00316 µM
[20] = second compound 1 µM, first compound 0.01 µM
[21] = second compound 1 µM, first compound 0.0316 µM
[22] = second compound 1 µM, first compound 0.1 µM
[23] = second compound 1 µM, first compound 0.316 µM
[24] = second compound 1 µM, first compound 1 µM
[25] = second compound 3.16 µM, first compound 0.00316 µM
[26] = second compound 3.16 µM, first compound 0.01 µM
[27] = second compound 3.16 µM, first compound 0.0316 µM
[28] = second compound 3.16 µM, first compound 0.1 µM
[29] = second compound 3.16 µM, first compound 0.316 µM
[30] = second compound 3.16 µM, first compound 1 µM
[31] = second compound 10 µM, first compound 0.00316 µM
[32] = second compound 10 µM, first compound 0.01 µM
[33] = second compound 10 µM, first compound 0.0316 µM
[34] = second compound 10 µM, first compound 0.1 µM
[35] = second compound 10 µM, first compound 0.316 µM
[36] = second compound 10 µM, first compound 1 µM
[37] = second compound 0.0316 µM, first compound 3.16 µM
[38] = second compound 0.0316 µM, first compound 10 µM
[39] = second compound 0.1 µM, first compound 3.16 µM
[40] = second compound 0.1 µM, first compound 10 µM
[41] = second compound 0.316 µM, first compound 3.16 µM
[42] = second compound 0.316 µM, first compound 10 µM
[43] = second compound 1 µM, first compound 3.16 µM
[44] = second compound 1 µM, first compound 10 µM
[45] = second compound 3.16 µM, first compound 3.16 µM
[46] = second compound 3.16 µM, first compound 10 µM
[47] = second compound 10 µM, first compound 3.16 µM
[48] = second compound 10 µM, first compound 10 µM
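Further: spheroids exposed to drugs for 7 days.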
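Wherever viability, T/C is given: 100% = DMSO vehicle treated spheroids.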

C=CCn1c(=O)c2cnc(Nc3ccc(N4CCN(C)CC4)cc3)nc2n1-c1cccc(C(C)(C)O)n1 + COC1C(OC(N)=O)C(O)C(Oc2ccc3c(O)c(NC(=O)c4ccc(O)c(CC=C(C)C)c4)c(=O)oc3c2C)OC1(C)C
IC50 (second compound 0.0316 µM): 855 nM
IC50 (second compound 0.1 µM): 863 nM
IC50 (second compound 0.316 µM): 675 nM
IC50 (second compound 1 µM): > 1000 nM
IC50 (second compound 3.16 µM): > 1000 nM
IC50 (second compound 10 µM): 966 nM
viability, T/C [1]: 89.1%
viability, T/C [2]: 115%
viability, T/C [3]: 126%
viability, T/C [4]: 117%
viability, T/C [5]: 92.8%
viability, T/C [6]: 43.2%
viability, T/C [7]: 93.1%
viability, T/C [8]: 101%
viability, T/C [9]: 117%
viability, T/C [10]: 96%
viability, T/C [11]: 89.2%
viability, T/C [12]: 44.3%
viability, T/C [13]: 98.5%
viability, T/C [14]: 109%
viability, T/C [15]: 134%
viability, T/C [16]: 102%
viability, T/C [17]: 83.9%
viability, T/C [18]: 32.8%
viability, T/C [19]: 110%
viability, T/C [20]: 118%
viability, T/C [21]: 94.9%
viability, T/C [22]: 102%
viability, T/C [23]: 104%
viability, T/C [24]: 60.8%
viability, T/C [25]: 91.9%
viability, T/C [26]: 127%
viability, T/C [27]: 106%
viability, T/C [28]: 83.2%
viability, T/C [29]: 56.5%
viability, T/C [30]: 53.9%
viability, T/C [31]: 101%
viability, T/C [32]: 104%
viability, T/C [33]: 120%
viability, T/C [34]: 114%
viability, T/C [35]: 93.8%
viability, T/C [36]: 48.6%

COc1cccc(OCCCN)c1-c1cc(Nc2cnc(C#N)cn2)n[nH]1 + Nc1ccc(C#CCN(C(=O)Cc2ncc(C(F)(F)F)cc2C(F)(F)F)c2ccc(F)cc2)nn1
IC50 (second compound 0.0316 µM): 25 nM
IC50 (second compound 0.1 µM): 23.5 nM
IC50 (second compound 0.316 µM): 17.1 nM
IC50 (second compound 1 µM): 16.1 nM
IC50 (second compound 3.16 µM): 23.7 nM
IC50 (second compound 10 µM): 19.7 nM
viability, T/C [1]: 71%
viability, T/C [2]: 66.9%
viability, T/C [3]: 34.4%
viability, T/C [4]: 49%
viability, T/C [5]: 14.3%
viability, T/C [6]: 17.4%
viability, T/C [7]: 86.9%
viability, T/C [8]: 69.2%
viability, T/C [9]: 38.4%
viability, T/C [10]: 39.4%
viability, T/C [11]: 25%
viability, T/C [12]: 24.3%
viability, T/C [13]: 92.2%
viability, T/C [14]: 66.1%
viability, T/C [15]: 31.9%
viability, T/C [16]: 19.9%
viability, T/C [17]: 25.6%
viability, T/C [18]: 15.7%
viability, T/C [19]: 80.1%
viability, T/C [20]: 60.7%
viability, T/C [21]: 34.6%
viability, T/C [22]: 24.4%
viability, T/C [23]: 17.6%
viability, T/C [24]: 19%
viability, T/C [25]: 94.6%
viability, T/C [26]: 66.6%
viability, T/C [27]: 47.5%
viability, T/C [28]: 24.2%
viability, T/C [29]: 28.7%
viability, T/C [30]: 19.9%
viability, T/C [31]: 100%
viability, T/C [32]: 64.5%
viability, T/C [33]: 30.5%
viability, T/C [34]: 44.3%
viability, T/C [35]: 30.3%
viability, T/C [36]: 19.1%

O=c1[nH]cc(F)c(=O)[nH]1 + COC1C(OC(N)=O)C(O)C(Oc2ccc3c(O)c(NC(=O)c4ccc(O)c(CC=C(C)C)c4)c(=O)oc3c2C)OC1(C)C
IC50 (second compound 0.0316 µM): > 10000 nM
IC50 (second compound 0.1 µM): 8300 nM
IC50 (second compound 0.316 µM): 7080 nM
IC50 (second compound 1 µM): > 10000 nM
IC50 (second compound 3.16 µM): 8980 nM
IC50 (second compound 10 µM): > 10000 nM
viability, T/C [3]: 86%
viability, T/C [4]: 130%
viability, T/C [5]: 113%
viability, T/C [6]: 76%
viability, T/C [37]: 60.7%
viability, T/C [38]: 53.7%
viability, T/C [9]: 91.2%
viability, T/C [10]: 93.2%
viability, T/C [11]: 102%
viability, T/C [12]: 82%
viability, T/C [39]: 61.7%
viability, T/C [40]: 47.4%
viability, T/C [15]: 133%
viability, T/C [16]: 99.6%
viability, T/C [17]: 100%
viability, T/C [18]: 71%
viability, T/C [41]: 45.3%
viability, T/C [42]: 53.5%
viability, T/C [21]: 87.6%
viability, T/C [22]: 102%
viability, T/C [23]: 91.8%
viability, T/C [24]: 57%
viability, T/C [43]: 53.7%
viability, T/C [44]: 53.9%
viability, T/C [27]: 124%
viability, T/C [28]: 113%
viability, T/C [29]: 83.7%
viability, T/C [30]: 65.9%
viability, T/C [45]: 60.6%
viability, T/C [46]: 50.4%
viability, T/C [33]: 108%
viability, T/C [34]: 114%
viability, T/C [35]: 90.5%
viability, T/C [36]: 81.1%
viability, T/C [47]: 58.6%
viability, T/C [48]: 61.5%

CCc1cc2c(N3CCc4c(cc(Cn5ccnc5)cc4-c4cn(C)nc4C(F)(F)F)C3=O)cc(C)nc2c(OC)n1 + COC1C(OC(N)=O)C(O)C(Oc2ccc3c(O)c(NC(=O)c4ccc(O)c(CC=C(C)C)c4)c(=O)oc3c2C)OC1(C)C
IC50 (second compound 0.0316 µM): > 10000 nM
IC50 (second compound 0.1 µM): > 10000 nM
IC50 (second compound 0.316 µM): > 10000 nM
IC50 (second compound 1 µM): > 10000 nM
IC50 (second compound 3.16 µM): > 10000 nM
IC50 (second compound 10 µM): > 10000 nM
viability, T/C [3]: 105%
viability, T/C [4]: 86.1%
viability, T/C [5]: 89.6%
viability, T/C [6]: 83%
viability, T/C [37]: 73.4%
viability, T/C [38]: 64%
viability, T/C [9]: 83.5%
viability, T/C [10]: 71.5%
viability, T/C [11]: 75.1%
viability, T/C [12]: 86.9%
viability, T/C [39]: 83.2%
viability, T/C [40]: 75.1%
viability, T/C [15]: 111%
viability, T/C [16]: 90.2%
viability, T/C [17]: 86.1%
viability, T/C [18]: 51.9%
viability, T/C [41]: 54%
viability, T/C [42]: 70.5%
viability, T/C [21]: 100%
viability, T/C [22]: 71.3%
viability, T/C [23]: 86.9%
viability, T/C [24]: 82.2%
viability, T/C [43]: 88.9%
viability, T/C [44]: 91%
viability, T/C [27]: 66%
viability, T/C [28]: 100%
viability, T/C [29]: 80.8%
viability, T/C [30]: 78.2%
viability, T/C [45]: 73.1%
viability, T/C [46]: 63.8%
viability, T/C [33]: 68.1%
viability, T/C [34]: 93.4%
viability, T/C [35]: 64.6%
viability, T/C [36]: 82.2%
viability, T/C [47]: 51.1%
viability, T/C [48]: 69.9%
